Assay [1] has as its target T1, porcine pancreatic elastase (PPE) (Sus scrofa, UniProt P00772).
T1 construct: purchased Sigma
Nature of the assay: Specificity assay, porcine pancreatic elastase. The format is biochemical. The note with it: 2 h enzyme-inhibitor pre-incubation. How it is done:
(§1) The specificities of compounds of the present invention were determined against a variety of serine proteases: human neutrophil elastase (HNE), porcine pancreatic elastase (PPE) and human pancreatic chymotrypsin and one cysteine protease: human liver cathepsin B. In all cases a 96-well plate format protocol using colorimetric p-nitroaniline (pNA) substrate specific for each enzyme was used as described previously (PCT Patent Application No. WO 00/09543) with some modifications to the serine protease assays. All enzymes were purchased from Sigma while the substrates were from Bachem.
(§2) Each assay included a 2 h enzyme-inhibitor pre-incubation at room temperature followed by addition of substrate and hydrolysis to ˜30% conversion as measured on a Spectramax Pro microplate reader. Compound concentrations varied from 100 to 0.4 μM depending on their potency. […]
(§3) The percentage of inhibition was calculated using the formula: [1−((UVinh−UVblank)/(UVctl−UVblank))]×100 […]

Assay [2] has as its system HCV replicon in Huh7 cells. The experiment in a line: HCV replicon cell-based assay (FRET). Set-up: species or system HCV strain 1b. The note with it: Hepatitis C virus. The text has this:
An HCV replicon whole cell system was established as described by Lohmann V, Korner F, Koch J, Herian U, Theilmann L, Bartenschlager R., Science 285(5424):110–3 (1999). This system enabled us to evaluate the effects of our HCV Protease compounds on HCV RNA replication. Briefly, using the HCV strain 1b sequence described in the Lohmann paper (Assession number:AJ238799), an HCV cDNA was generated encoding the 5′ internal ribosome entry site (IRES), the neomycin resistance gene, the EMCV (encephalomyocarditis viurs)-IRES and the HCV nonstructural proteins, NS3–NS5B, and 3′ non-translated region (NTR). In vitro transcripts of the cDNA were transfected into the human hepatoma cell line, Huh7. […] Resulting cell lines were characterized for positive and negative strand RNA production and protein production over time.
Huh7 cells, constitutively expressing the HCV replicon, were grown in Dulbecco's Modified Eagle Media (DMEM) containing 10% Fetal calf serum (FCS) and 1 mg/ml G418 (Gibco-BRL). Cells were seeded the night before (1.5×10^4 cells/well) in 96-well tissue-culture sterile plates. Compound and no compound controls were prepared in DMEM containing 4% FCS, 1:100 Penicillin/Streptomysin, 1:100 L-glutamine and 5% DMSO in the dilution plate (0.5% DMSO final concentration in the assay). Compound/DMSO mixes were added to the cells and incubated for 4 days at 37° C. After 4 days, plates were rinsed thoroughly with Phosphate-Buffered Saline (PBS) (3 times 150 μl). The cells were lysed with 25 μl of a lysis assay reagent containing the FRET peptide (RET S1, as described for the in vitro enzyme assay). The lysis assay reagent was made from 5× cell Luciferase cell culture lysis reagent (Promega #E153A) diluted to 1× with distilled water, NaCl added to 150 mM final, the FRET peptide diluted to 10 μM final from a 2 mM stock in 100% DMSO. The plate was then placed into the Cytofluor 4000 instrument which had been set to 340 nm excitation/490 nm emission, automatic mode for 21 cycles and the plate read in a kinetic mode. EC50 determinations were carried out as described for the IC50 determinations. […]
The percentage inhibition was calculated using the formula below: […]
The values were graphed and analyzed using XLFit to obtain the EC50 value.
Background: Replicon systems follow genome replication, usually without infectious particles.

Assay [3] addresses T2, human neutrophil elastase (HNE) (Homo sapiens, UniProt P08246).
T2 construct: purchased Sigma
T2 sequence (P08246 30-267): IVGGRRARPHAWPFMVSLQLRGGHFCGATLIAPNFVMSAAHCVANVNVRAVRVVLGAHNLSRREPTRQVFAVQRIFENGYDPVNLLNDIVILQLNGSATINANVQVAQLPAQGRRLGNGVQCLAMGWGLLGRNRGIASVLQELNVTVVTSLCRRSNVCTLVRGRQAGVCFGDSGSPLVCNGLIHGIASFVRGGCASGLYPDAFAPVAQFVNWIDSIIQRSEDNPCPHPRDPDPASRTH
The experiment in a line: Specificity assay, human neutrophil elastase. The class given is biochemical. The note with it: 2 h enzyme-inhibitor pre-incubation. On the procedure: as §1, §2, §3

IC50 and EC50 data for one molecule are collected here from patent US7132504B2, “Hepatitis C virus inhibitors” (Bristol-Myers Squibb Company, priority 2003, dated 2006).

Where two headings read alike, the source gives them in different places. Where only a bound is given, the exact number is not on record here.

T1 sequence (P00772 27-266): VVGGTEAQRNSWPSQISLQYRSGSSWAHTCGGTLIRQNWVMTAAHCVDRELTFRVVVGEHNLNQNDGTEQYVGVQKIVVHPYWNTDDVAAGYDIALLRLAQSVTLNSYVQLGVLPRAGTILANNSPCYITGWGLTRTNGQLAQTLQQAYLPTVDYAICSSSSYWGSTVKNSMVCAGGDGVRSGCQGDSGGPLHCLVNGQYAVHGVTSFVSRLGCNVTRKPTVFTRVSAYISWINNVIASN

One may read the IC50 as the concentration needed to halve the response being measured. High values mean lower potency, low ones higher potency. The EC50 is the concentration needed to bring the measured effect to its halfway point. Regarding `C=CC1C[C@]1(NC(=O)[C@@H]1C[C@@H](Oc2cc(-c3ccccc3)nc3cc(OC)ccc23)CN1C(=O)[C@@H](NC(=O)OC)C(C)(C)C)C(=O)NS(=O)(=O)N(C)Cc1ccccc1` (stereo partly shown) [Compound 9], the IC50 in assay [1] is above 200000 nM; in assay [3], 46000 nM. Besides, the EC50 was 150 to 1500 nM in assay [2] (Huh-7, 96 h, 4 days, read-out: Activity Range EC50) and 403 nM in assay [2] (Huh-7, read-out: EC50 value in the replicon assay).
